From patent US20070160725A1, “Use of extracts and compounds of allium-genus plants as preservatives in the food and agri-food industries” (MOUSALA, S., L., priority 2004, published 2007)

Assays:
[1] = tested on: Listeria monocytogenes, ATCC 15313; assay: agar diffusion, inhibition halo; assay type: cell-based
Method: (§1) In order to evaluate the antimicrobial activity the agar diffusion technique with cellulose discs of 6 mm in diameter impregnated with the different active ingredient testing doses was used.
(§2) Antibacterial capacity was assessed against suspensions of 10^6 cells/ml, prepared from pure young cultures of each one of the strains to be tested. The culture medium used was Müller-Hinton medium (Merck).
(§3) After incubating the culture dishes inoculated with the different organisms at the corresponding temperatures, the microbial inhibition halos that appeared were measured, and said measurement includes the 6 mm diameter of the cellulose discs.

[2] = tested on: Escherichia coli, CECT 515; assay: agar diffusion, inhibition halo; assay type: cell-based
Method: as §1, §2, §3

[3] = tested on: Bacillus megaterium, ATCC 33085; assay: agar diffusion, inhibition halo; assay type: cell-based
Method: as §1, §2, §3

[4] = tested on: Bacillus cereus, CECT 1178; assay: agar diffusion, inhibition halo; assay type: cell-based
Method: as §1, §2, §3

[5] = tested on: Micrococcus luteus, isolated from a spiced sausage; assay: agar diffusion, inhibition halo; assay type: cell-based
Method: as §1, §2, §3

[6] = tested on: Coliforms; assay: microbiological quality of treated hamburgers and fresh sausage: coliform count (MPN)
Method: The tests were conducted on meat products such as hamburgers and fresh sausage at different doses, with and without the usual preservatives (sulfites).
Each sample is prepared in quintuplicate and microbiological quality control over time is conducted, a triplicate of each sample being performed.
The method used to detect lactose-positive enterobacteria (coliforms) is based on its capacity to ferment lactose with the production of acid and gas in the presence of bile salts.
To that end a count was performed in liquid medium to determine a MPN on Brilliant Green Bile Lactose Broth (Merck Brila Broth).
Said Brilliant Broth is prepared in a test tube rack with 3 series of three tubes for each one of the samples to be analyzed. Each tube contains 10 ml of Brila Broth and 1 Durham tube.
1 mL of the dilution of the sample at 1:10 or (−1) is poured into each one of the tubes of the first series.
1 mL of the dilution of the sample at 1:100 or (−2) is poured into each one of the tubes of the second series.
1 mL of the dilution of the sample at 1:1000 or (−3) is poured into each one of the tubes of the third series.
The three series are incubated at 31±1° C., taking a reading at 24 and 48 hours.
The reaction is positive when gas discharge occurs inside the Durham tube, at least in 1/10 of its volume.
The Most Probable Number (MPN) table is used with the number of positive tubes in each series, and the data is extrapolated.
The result is finally expressed as the coliform count per gram of sample.
Two different raw meat products (sausages and hamburgers) treated with different allicin doses are prepared. • The used testing doses were: 25, 50 and 100 ppm.
Five samples of each product (hamburger and sausage) are prepared, each one of them being analyzed in triplicate.
The microbiological parameters analyzed were as follows: • Total mesophilic aerobes • Coliforms • Escherichia coli • Salmonella (presence/absence in 25 g) • Said parameters were analyzed at different times: • 0 days • 4 days • 7 days • The sample references resulted as follows: […]

`C=CCS[S+]([O-])CC=C` (stereo not drawn) [Allicin, allyl allylthiosulfinate] gave an inhibition halo diameter ([1]; 25 ppm) of 18 mm, an inhibition halo diameter ([1]; 50 ppm) of 24 mm and an inhibition halo diameter ([1]; 100 ppm) of 30 mm. It also gave an inhibition halo diameter ([2]; 25 ppm) of 14 mm, an inhibition halo diameter ([2]; 50 ppm) of 17 mm and an inhibition halo diameter ([2]; 100 ppm) of 21 mm. For the same compound, the inhibition halo diameter ([3]; 25 ppm) was 23 mm, the inhibition halo diameter ([3]; 50 ppm) was 27 mm and the inhibition halo diameter ([3]; 100 ppm) was 34 mm. For the same compound, the inhibition halo diameter ([4]; 25 ppm) was 22 mm, the inhibition halo diameter ([4]; 50 ppm) was 29 mm and the inhibition halo diameter ([4]; 100 ppm) was 35 mm. The inhibition halo diameter ([5]; 25 ppm) was 19 mm, the inhibition halo diameter ([5]; 50 ppm) was 25 mm and the inhibition halo diameter ([5]; 100 ppm) was 32 mm. The Coliforms ([6]; hamburger, 25 ppm of allicin (H-1), t = 0 days) was 150 cfu/g, the Coliforms ([6]; hamburger, 25 ppm of allicin (H-1), t = 4 days) was >2400 cfu/g and the Coliforms ([6]; hamburger, 50 ppm of allicin (H-2), t = 0 days) was 150 cfu/g. For the same compound, the Coliforms ([6]; hamburger, 50 ppm of allicin (H-2), t = 4 days) was 1100 cfu/g, the Coliforms ([6]; hamburger, 100 ppm of allicin (H-3), t = 0 days) was 150 cfu/g and the Coliforms ([6]; hamburger, 100 ppm of allicin (H-3), t = 4 days) was 150 cfu/g. For the same compound, the Coliforms ([6]; sausage, 25 ppm of allicin (S-1), t = 0 days) was 3 cfu/g, the Coliforms ([6]; sausage, 25 ppm of allicin (S-1), t = 4 days) was 21 cfu/g and the Coliforms ([6]; sausage, 50 ppm of allicin (S-2), t = 0 days) was <3 cfu/g. For the same compound, the Coliforms ([6]; sausage, 50 ppm of allicin (S-2), t = 4 days) was 7 cfu/g, the Coliforms ([6]; sausage, 100 ppm of allicin (S-3), t = 0 days) was <3 cfu/g and the Coliforms ([6]; sausage, 100 ppm of allicin (S-3), t = 4 days) was <3 cfu/g.
